Laboratory results from publication PMC3914206.

Tests used:
Format in all cases: binding
[1] = target: T1, panel of 442 kinases (Homo sapiens, UniProt P0C264); details: kinase SgK110; compound concentration 10 µM
T1 construct: purchased KINOMEscan
T1 sequence (P0C264 1-359): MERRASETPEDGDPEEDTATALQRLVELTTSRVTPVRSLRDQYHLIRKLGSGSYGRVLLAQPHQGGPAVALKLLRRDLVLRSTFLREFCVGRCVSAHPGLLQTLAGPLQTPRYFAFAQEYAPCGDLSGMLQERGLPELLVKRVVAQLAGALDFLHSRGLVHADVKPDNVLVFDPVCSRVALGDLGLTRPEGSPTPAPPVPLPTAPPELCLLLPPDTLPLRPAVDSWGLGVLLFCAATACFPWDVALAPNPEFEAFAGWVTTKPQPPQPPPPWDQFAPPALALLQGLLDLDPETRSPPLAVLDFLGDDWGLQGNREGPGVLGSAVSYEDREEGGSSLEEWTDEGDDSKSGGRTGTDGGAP
Source text: (§1) We assessed the selectivity of members of this scaffold using the KINOMEscan methodology across a near comprehensive panel of 442 kinases [[18,27]].

[2] = target: T2, panel of 442 kinases (Homo sapiens, UniProt P23458); details: Compound Concentration 10 µM
T2 construct: purchased KINOMEscan
T2 sequence (P23458 whole entry): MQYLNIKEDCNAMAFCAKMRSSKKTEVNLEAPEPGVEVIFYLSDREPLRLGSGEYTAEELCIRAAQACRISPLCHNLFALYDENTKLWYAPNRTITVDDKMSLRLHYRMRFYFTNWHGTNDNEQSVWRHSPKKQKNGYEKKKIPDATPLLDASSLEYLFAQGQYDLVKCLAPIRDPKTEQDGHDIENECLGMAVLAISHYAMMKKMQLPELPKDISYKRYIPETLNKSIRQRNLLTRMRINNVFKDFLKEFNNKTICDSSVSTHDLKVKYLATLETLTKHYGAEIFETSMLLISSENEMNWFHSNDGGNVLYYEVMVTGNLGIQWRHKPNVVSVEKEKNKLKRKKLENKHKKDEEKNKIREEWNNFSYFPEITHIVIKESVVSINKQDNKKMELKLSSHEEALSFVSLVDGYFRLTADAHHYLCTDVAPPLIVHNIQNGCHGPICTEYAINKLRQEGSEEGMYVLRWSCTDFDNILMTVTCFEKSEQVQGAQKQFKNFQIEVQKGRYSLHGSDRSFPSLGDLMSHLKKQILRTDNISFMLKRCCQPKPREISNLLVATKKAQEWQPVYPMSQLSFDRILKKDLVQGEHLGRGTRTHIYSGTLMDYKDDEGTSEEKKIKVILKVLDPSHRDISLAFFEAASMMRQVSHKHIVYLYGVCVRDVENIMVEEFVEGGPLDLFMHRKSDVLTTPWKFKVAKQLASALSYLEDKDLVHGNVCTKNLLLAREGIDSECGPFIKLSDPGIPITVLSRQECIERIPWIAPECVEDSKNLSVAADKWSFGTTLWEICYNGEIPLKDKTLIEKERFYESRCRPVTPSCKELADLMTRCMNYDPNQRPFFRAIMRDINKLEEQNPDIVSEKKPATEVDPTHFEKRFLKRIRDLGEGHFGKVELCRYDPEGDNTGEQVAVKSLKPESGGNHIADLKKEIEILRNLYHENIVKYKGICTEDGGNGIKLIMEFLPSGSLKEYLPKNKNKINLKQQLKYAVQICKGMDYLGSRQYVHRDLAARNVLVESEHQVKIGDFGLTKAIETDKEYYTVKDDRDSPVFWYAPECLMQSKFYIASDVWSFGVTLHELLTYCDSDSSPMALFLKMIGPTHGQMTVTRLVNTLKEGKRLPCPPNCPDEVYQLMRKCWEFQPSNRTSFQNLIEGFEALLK
Source text: as §1

[3] = target: T3, panel of 442 kinases (Homo sapiens, UniProt P36897); details: kinase TGFBR1; compound concentration 10 µM
T3 construct: purchased KINOMEscan
T3 sequence (P36897 34-503): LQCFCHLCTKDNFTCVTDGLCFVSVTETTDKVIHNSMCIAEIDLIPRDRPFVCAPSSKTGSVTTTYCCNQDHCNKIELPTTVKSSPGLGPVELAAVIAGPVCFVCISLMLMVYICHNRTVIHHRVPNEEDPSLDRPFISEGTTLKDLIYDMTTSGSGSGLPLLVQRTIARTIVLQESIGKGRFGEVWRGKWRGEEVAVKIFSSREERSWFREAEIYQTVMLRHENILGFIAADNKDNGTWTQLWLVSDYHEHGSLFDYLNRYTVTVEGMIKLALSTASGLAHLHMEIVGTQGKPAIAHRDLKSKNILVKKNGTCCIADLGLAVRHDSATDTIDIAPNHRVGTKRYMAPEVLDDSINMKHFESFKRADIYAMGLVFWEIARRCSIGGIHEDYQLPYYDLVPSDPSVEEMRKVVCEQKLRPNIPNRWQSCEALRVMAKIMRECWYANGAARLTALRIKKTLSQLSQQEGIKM
Source text: as §1

Compound | % Ctrl, SgK110 [1] [% Ctrl] | KINOMEscan: JAK1(JH1domain-catalytic) [2] | KINOMEscan: JAK1(JH2domain-pseudokinase) [2] | % Ctrl, TGFBR1 [3] [% Ctrl]
CCOc1cc(C(=O)N2CCC(N3CCN(C)CC3)CC2)ccc1Nc1ncc2c(n1)N(C1CCCC1)c1ccccc1C(=O)N2C [Compound 26] | 81 | 100 | 98 | 100
COc1cc(C(=O)N2CCC(N3CCN(C)CC3)CC2)ccc1Nc1ncc2c(n1)N1CCc3cccc(c31)C(=O)N2C [Compound 24] |  |  | 62 | 100
COc1cc(C(=O)N2CCC(N3CCN(C)CC3)CC2)ccc1Nc1ncc2c(n1)N(C)c1ccccc1C(=O)N2C [15 (LRRK2-IN-1)] | 62 | 100 | 92 | 100
COc1cc(C(=O)N2CCC(N3CCN(C)CC3)CC2)ccc1Nc1ncc2c(n1)N(C1CCCC1)c1ccccc1C(=O)N2C [Compound 25, 11-cyclopentyl-2-((2-methoxy-4-(4-(4-methylpiperazin-1-yl)piperidine-1-carbonyl)phenyl)amino)-5-methyl-5H-benzo[e]pyrimido[5,4-b][1,4]diazepin-6(11H)-one] | 43 | 100 | 100 | 98
